According to patent US10730843B1, “Quinoxalines useful as cytoprotective agents” (priority 2019, dated 2020):

Tests used:
Ob/ob mice = assay: Effect of a SERCA agonist on the level of blood glucose; format: in vivo; conditions: Mus musculus, ip, 96 h, 50 mg/kg i.p. once a day for 5 days, fasting glucose at baseline and 4 days after administration, read-out: Glucose level reduction
Description: Ob/ob mice (10 weeks old, n=7) were intraperitoneally (i.p.) injected with 100 μL of a solution containing 0 (vehicle) or 50 mg/kg of a test compound once a day for a total of 5 days. Fasting glucose was measured at baseline and 4 days after the administration of the test compound. Glucose levels were measured in blood samples drawn from the tail vein using a handheld glucose sensor. Compound effects on blood glucose are shown in Table 5 where A represents a 10-20% reduction in blood glucose, B represents a 21-30% reduction in blood glucose, and C represents a greather than 30% reduction in blood glucose levels.

SERCA = molecular target: T1, SERCA (Homo sapiens, UniProt P16615); assay: Ca-ATPase assay (NADH-linked, enzyme-coupled ATPase assay); format: biochemical; conditions: microsomal preparations from HEK 293 cells; Vmax from fit of ATPase calcium-dependence to the Hill function, relative to controls
T1 construct: microsomal preparations from HEK 293 cells; endogenous in cells; host or cells: HEK 293 cells (microsomal preparation)
T1 sequence (P16615 whole entry): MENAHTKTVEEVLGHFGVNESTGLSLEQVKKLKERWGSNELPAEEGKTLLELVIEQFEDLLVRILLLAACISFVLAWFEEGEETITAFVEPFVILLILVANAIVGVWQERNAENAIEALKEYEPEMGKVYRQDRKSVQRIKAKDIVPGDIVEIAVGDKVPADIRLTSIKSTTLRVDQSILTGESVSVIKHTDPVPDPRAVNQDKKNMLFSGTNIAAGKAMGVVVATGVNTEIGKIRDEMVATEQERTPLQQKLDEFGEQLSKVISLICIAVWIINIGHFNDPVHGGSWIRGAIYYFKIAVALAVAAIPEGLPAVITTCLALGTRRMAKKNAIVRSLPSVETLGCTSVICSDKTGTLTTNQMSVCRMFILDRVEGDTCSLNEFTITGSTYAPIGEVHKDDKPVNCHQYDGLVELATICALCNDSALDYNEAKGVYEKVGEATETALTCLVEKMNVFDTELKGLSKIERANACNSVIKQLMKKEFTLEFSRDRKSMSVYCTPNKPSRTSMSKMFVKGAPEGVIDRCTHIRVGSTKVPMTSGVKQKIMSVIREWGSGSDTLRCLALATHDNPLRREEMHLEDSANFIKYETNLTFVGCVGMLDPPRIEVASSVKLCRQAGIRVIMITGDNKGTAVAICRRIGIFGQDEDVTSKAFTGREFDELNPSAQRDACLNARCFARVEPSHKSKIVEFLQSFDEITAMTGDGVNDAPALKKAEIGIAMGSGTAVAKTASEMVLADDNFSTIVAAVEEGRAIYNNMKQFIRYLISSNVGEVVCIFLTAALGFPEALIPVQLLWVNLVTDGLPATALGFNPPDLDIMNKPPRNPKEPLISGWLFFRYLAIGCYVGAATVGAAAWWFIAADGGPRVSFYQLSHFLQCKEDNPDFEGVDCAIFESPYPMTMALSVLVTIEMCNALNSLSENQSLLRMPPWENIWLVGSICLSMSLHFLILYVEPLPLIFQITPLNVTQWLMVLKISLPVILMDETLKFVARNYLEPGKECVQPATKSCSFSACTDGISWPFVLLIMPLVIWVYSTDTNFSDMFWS
Description: A Ca-ATPase assay was performed using microsomal preparations from HEK 293 cells at a series of calcium concentrations corresponding to the physiological range, relative to controls. The ATP hydrolysis rate was measured over a range of calcium concentrations in the presence of test compounds using an NADH-linked, enzyme-coupled ATPase assay adapted for 96-well microplates, with Vmax determined by fitting the ATPase calcium-dependence to the Hill function. Each well contained 2 μg or 7 μg of SR vesicles (optimized for skeletal or cardiac SR, respectively), 50 mM MOPS (pH 7.0), 100 mM KCl, 5 mM MgCl2, 1 mM EGTA, 0.2 mM NADH, 1 mM phosphoenol pyruvate, 5 IU pyruvate kinase, 5 IU lactate dehydrogenase, and 3.5 μg/mL A23187 (a calcium ionophore). CaCl2 was added to set free [Ca^2+] to the specific values. The assay was started upon addition of ATP at a final concentration of 5 mM, and read in a SpectraMax Plus microplate spectrophotometer. The results are summarized in Table 4, where A represents an increase in SERCA Vmax greater than or equal to 50% and B represents a value greater than 10% and less than 50%.

Human SH-SY5Y cells = assay: Cell rescue assay: protection against ß-amyloid-induced cell toxicity; format: cell-based; conditions: 96 h, 7.5 uM compound, AB1-42 at 10 uM, 4 days, % cell rescue, read-out: Cell Survival %
Description: Protection against ß-amyloid-induced cell toxicity. Chonpathompikunlert et al. Eu. J. Pharmacol. 2011, 650, 544-549. Human SH-SY5Y cells are suspended in media containing 2% FBS and 2× Gentamicin. Transfer 100 ul/well culture to 96-well plate (20,000 cells/well; passage #5) and incubate overnight. Prepare compound samples at 30 uM. Add 50 ul of the samples to the cells [[…]] and incubate 3 hours. Make stock of 40 uM AB1-42 peptide in assay media. Transfer 50 ul/well to cells/compounds in assay plate. The final assay volume is 200 ul/well, containing 2% FBS, 2× Gentamicin, 7.5 uM compound and AB1-42 at 10 uM. Incubate for 4 days then add 20 ul of Promega Substrate Cell Titer 96 Aqueous One Solution Reagent to each well. Incubate 37° C. and read OD at 490 nm. The results are summarized in Table 3, where A represents a value equal to or greater than 50% cell rescue, B represents a value greater than 20% and less than 50% cell rescue, and C represents a value greater than 10% and less than or equal to 20% cell rescue.

[1] = tested on: Human embryonic kidney (HEK293) cells; mouse neuroblastoma (N2a) cells; assay: Cell rescue assay: protection against thapsigargin (TG)-induced cell-death (ALAMARBLUE); format: cell-based; conditions: compound at 20 μM, 2 hrs before thapsigargin (15 μM for HEK293 cells, 1 μM for N2a cells), 24 hrs; viability as % RFU compared to control; cell line not given; read-out: Cell Survival %
Description: Protection against Thapsigargin (TG)-induced Cell-death. Human embryonic kidney (HEK293) cells were grown in Dulbecco's Modified Eagle's Medium (DMEM) with 10% FBS and 1% antibiotic antimycotic solution (ABAM). Mouse neuroblastoma (N2a) cells were grown in 1:1 DMEM:OPTI-MEM® with 5% FBS and 1% ABAM. All cells were grown in 10% CO2 in a humidified environment of the incubator. Cells grown in 96-well plates were exposed to a test compound (20 μM) for 2 hrs before addition of thapsigargin (15 μM for HEK293 cells and 1 μM for N2a cells) to induce ER stress. After incubation in cell-culture incubator for 24 hrs, ALAMARBLUE® regent (10% v/v) was added to the wells. Fluorescence reading was taken 2 hrs after the addition of the ALAMARBLUE® regent. Cell-viability was calculated as a percentage of relative fluorescence unit (RFU) compared to control. […] The biological results are summarized in Table 2, where each compound was tested at 20 μM and where A represents a viability greater than or equal to 50%, B represents a viability greather than 20% and less than 50%, and C represents a value from 10% to 20%.

CSM14.1 neuronal cells = assay: Cell survival assay (thapsigargin-induced cell death, CELLTITER-GLO); format: cell-based; conditions: compound 2 hrs before about 15 μM thapsigargin, overnight (about 16 to 24 hrs), luminescence
Description: CSM14.1 neuronal cells were maintained in Complete Medium at 32° C.; wherein the Complete Medium contained Dulbecco's modified eagle medium (DMEM) with 10% fetal bovine serum (FSB), 1% L-glutamine, 100 IU/mL penicillin, and 100 μg/mL streptomycin. The cells were recovered from cultures by trypsinization and then seeded in 384 well plates (Greiner #781098) at a concentration of 1,000 cells/well in 20 μL of DMEM Assay Medium, wherein the DMEM Assay Medium contained 2% FBS, 100 IU/mL penicillin, and 100 μg/mL streptomycin. Seeding was performed using a MultiDrop Combi reagent broadcaster. The plates were incubated overnight at 32° C. A test compound was prepared by 2-fold serial dilution in 100% DMSO using a BIOMEK® 2000 liquid handler (Beckman Coulter). A dose-response curve containing 10 concentrations of the test compound was obtained. Using a BIOMEK® FX liquid handler (Beckman Coulter), 2.5 μL of the test compound was transferred from the 100% DMSO serial dilution plate to an intermediate plate containing 47.5 μL of DMEM Assay Medium containing 2% FBS, 100 IU/mL penicillin, and 100 μg/mL streptomycin and mixed. To reduce or eliminate the interference from the compound's precipitation, 6 μL of the diluted compound was immediately transferred to the assay plate to achieve a high compound concentration of 100 μM in 99% DMEM Assay Medium and 1% DMSO. After the assay plates were incubated for 2 hrs, 4 μL of 112.5 μM thapsigargin (TG) (DMSO stock diluted into Assay TC Medium) was dispensed into each testing well with a MultiDrop Combi reagent broadcaster for a final concentration of about 15 μM TG. The tissue culture media (4 μL) containing vehicle only was transferred manually to each control cell using a 16 channel electronic pipette. After the plates were incubated overnight (about 16 to 24 hrs), CELLTITER-GLO® (Promega) (16 μL) was added to all wells and luminescence was measured. High luminescence indicates cell survival. The biological results are summarized in Table 1 where A represents a cell viability EC50 less than or equal to 1 μM, B represents a value greater than 1 μM and less than 10 μM, and C represents a value equal to or greather than 10 μM and less than 20 μM.

CC(C)Oc1ccc(C(=O)Nc2cccc3nccnc23)cc1 [A1, 4-Isopropoxy-N-(quinoxalin-5-yl)benzamide]
inhibition in vivo at 50 mg/kg (Ob/ob mice): 21 to 30% | SERCA Vmax Increase (SERCA): A (A represents an increase in SERCA Vmax greater than or equal to 50%) | viability at 7.5 µM (Human SH-SY5Y cells): ≥ 50% | viability at 20 µM [1]: 20 to 50% | EC50 (CSM14.1 neuronal cells): 1 to 10 µM

O=C(Nc1cccc2nccnc12)c1cc(Br)cs1 [A2, 4-Bromo-N-(quinoxalin-5-yl)thiophene-2-carboxamide]
inhibition in vivo at 50 mg/kg (Ob/ob mice): 21 to 30% | SERCA Vmax Increase (SERCA): B (B represents a value greater than 10% and less than 50%) | viability at 7.5 µM (Human SH-SY5Y cells): 10 to 20% | viability at 20 µM [1]: 20 to 50% | EC50 (CSM14.1 neuronal cells): 1 to 10 µM

O=C(Nc1cccc2nccnc12)c1ccc(Br)s1 [A3, 5-Bromo-N-(quinoxalin-5-yl)thiophene-2-carboxamide]
inhibition in vivo at 50 mg/kg (Ob/ob mice): 10 to 20% | SERCA Vmax Increase (SERCA): A (A represents an increase in SERCA Vmax greater than or equal to 50%) | viability at 7.5 µM (Human SH-SY5Y cells): 20 to 50% | viability at 20 µM [1]: 10 to 20% | EC50 (CSM14.1 neuronal cells): 10 to 20 µM

Cc1ccc(C(=O)Nc2cccc3nccnc23)s1 [A4, 5-Methyl-N-(quinoxalin-5-yl)thiophene-2-carboxamide]
inhibition in vivo at 50 mg/kg (Ob/ob mice): 10 to 20% | SERCA Vmax Increase (SERCA): A (A represents an increase in SERCA Vmax greater than or equal to 50%) | viability at 7.5 µM (Human SH-SY5Y cells): ≥ 50% | viability at 20 µM [1]: ≥ 50% | EC50 (CSM14.1 neuronal cells): 1 to 10 µM

O=C(Nc1cccc2nccnc12)c1cccs1 [A5, N-(Quinoxalin-5-yl)thiophene-2-carboxamide]
inhibition in vivo at 50 mg/kg (Ob/ob mice): > 30% | SERCA Vmax Increase (SERCA): A (A represents an increase in SERCA Vmax greater than or equal to 50%) | viability at 7.5 µM (Human SH-SY5Y cells): 20 to 50% | viability at 20 µM [1]: 10 to 20% | EC50 (CSM14.1 neuronal cells): 10 to 20 µM

O=C(Nc1cccc2nccnc12)c1cc2ccccc2s1 [A6, N-(Quinoxalin-5-yl)benzo[b]thiophene-2-carboxamide]
inhibition in vivo at 50 mg/kg (Ob/ob mice): 10 to 20% | SERCA Vmax Increase (SERCA): B (B represents a value greater than 10% and less than 50%) | viability at 7.5 µM (Human SH-SY5Y cells): 20 to 50% | viability at 20 µM [1]: 10 to 20% | EC50 (CSM14.1 neuronal cells): 1 to 10 µM

O=C(Nc1cccc2nccnc12)c1ccc(Cl)cc1 [A7, 4-Chloro-N-(quinoxalin-5-yl)benzamide]
inhibition in vivo at 50 mg/kg (Ob/ob mice): 10 to 20% | SERCA Vmax Increase (SERCA): B (B represents a value greater than 10% and less than 50%) | viability at 7.5 µM (Human SH-SY5Y cells): 20 to 50% | viability at 20 µM [1]: ≥ 50% | EC50 (CSM14.1 neuronal cells): ≤ 1 µM

CC(C)Oc1cccc(C(=O)Nc2cccc3nccnc23)c1 [A8, 3-Isopropoxy-N-(quinoxalin-5-yl)benzamide]
inhibition in vivo at 50 mg/kg (Ob/ob mice): 21 to 30% | SERCA Vmax Increase (SERCA): B (B represents a value greater than 10% and less than 50%) | viability at 7.5 µM (Human SH-SY5Y cells): 20 to 50% | viability at 20 µM [1]: 20 to 50% | EC50 (CSM14.1 neuronal cells): 10 to 20 µM

O=C(Nc1cccc2nccnc12)c1ccc(C(F)(F)F)cc1 [A9, N-(quinoxalin-5-yl)-4-(trifluoromethyl)benzamide]
inhibition in vivo at 50 mg/kg (Ob/ob mice): 21 to 30% | SERCA Vmax Increase (SERCA): A (A represents an increase in SERCA Vmax greater than or equal to 50%) | viability at 7.5 µM (Human SH-SY5Y cells): 10 to 20% | viability at 20 µM [1]: 20 to 50% | EC50 (CSM14.1 neuronal cells): ≤ 1 µM

O=C(Nc1cccc2nccnc12)c1cccc(F)c1 [A10, 3-fluoro-N-(quinoxalin-5-yl)benzamide]
inhibition in vivo at 50 mg/kg (Ob/ob mice): > 30% | SERCA Vmax Increase (SERCA): A (A represents an increase in SERCA Vmax greater than or equal to 50%) | viability at 7.5 µM (Human SH-SY5Y cells): 20 to 50% | viability at 20 µM [1]: 10 to 20% | EC50 (CSM14.1 neuronal cells): 1 to 10 µM
